What was measured:
[1] = tested on: dephosphorylation of AMPK by protein phosphatase-1; experiment: dephosphorylation of AMPK by catalytic subunit of protein phosphatase-1; format: biochemical, rat; conditions: data not shown
Text: (§1) The inhibitory effects observed to this point represent allosteric inhibition, i.e., direct effects on the activity of the AMPK kinase domain of carbohydrate binding at a different site, i.e., the GBD on the β subunit. It was important to establish whether carbohydrates might also affect phosphorylation and dephosphorylation by upstream kinases and phosphatases. […] To confirm that the latter was not an effect on LKB1, we tested the effect of the oligosaccharide on phosphorylation of a synthetic peptide substrate, i.e., LKBtide ([Lizcano et al., 2004]).

[2] = tested on: dephosphorylation of purified rat liver AMPK by protein phosphatase-2Cα (PPM1A); experiment: dephosphorylation of rat liver AMPK by PP2Cα, western blotting of pThr-172; format: biochemical; conditions: 1 mM oligosaccharide
Protocol: (§2) Figure 7 Effect of Oligosaccharide Number 5, See Figure 6, on Dephosphorylation of AMPK by PP2Cα and on Phosphorylation by CaMKKβ and LKB1 (A) Effect of oligosaccharide on dephosphorylation by PP2Cα. Rat liver AMPK was incubated with PP2Cα in the presence and absence of 1 mM oligosaccharide; at various times, levels of total α subunit and phosphorylation on Thr-172 were assessed by western blotting. (B) Quantification of results as in (A); means ± SEM of two experiments. (C) Effect of oligosaccharide on phosphorylation by CaMKKβ. Rat liver AMPK was dephosphorylated using PP1, okadaic acid was added to inhibit the phosphatase, and the protein was incubated with MgATP and CaMKKβ in the presence and absence of 1 mM oligosaccharide. At various times, levels of total α subunit and of phosphorylation on Thr-172 were assessed by western blotting. (D) Quantification of results as in (C); means ± SEM (n = 2). (E) Time course of effect of oligosaccharide on phosphorylation by LKB1, performed as in (C) but with LKB1 in place of CaMKKβ. (F) Effect of oligosaccharide on phosphorylation of a synthetic peptide substrate of LKB1 (mean ± SD; n = 2). (G) Inhibition of AMPK by bovine liver glycogen, a phosphorylase limit dextrin, and a mock-treated sample. IC50 values were determined as in Figure 2A and curves generated from the best-fit parameters. […]

LKB1 = target: T1, LKB1 (Homo sapiens, UniProt Q15831); experiment: phosphorylation of synthetic peptide substrate LKBtide by LKB1; format: biochemical; conditions: 1 mM oligosaccharide
T1 sequence (Q15831 1-433): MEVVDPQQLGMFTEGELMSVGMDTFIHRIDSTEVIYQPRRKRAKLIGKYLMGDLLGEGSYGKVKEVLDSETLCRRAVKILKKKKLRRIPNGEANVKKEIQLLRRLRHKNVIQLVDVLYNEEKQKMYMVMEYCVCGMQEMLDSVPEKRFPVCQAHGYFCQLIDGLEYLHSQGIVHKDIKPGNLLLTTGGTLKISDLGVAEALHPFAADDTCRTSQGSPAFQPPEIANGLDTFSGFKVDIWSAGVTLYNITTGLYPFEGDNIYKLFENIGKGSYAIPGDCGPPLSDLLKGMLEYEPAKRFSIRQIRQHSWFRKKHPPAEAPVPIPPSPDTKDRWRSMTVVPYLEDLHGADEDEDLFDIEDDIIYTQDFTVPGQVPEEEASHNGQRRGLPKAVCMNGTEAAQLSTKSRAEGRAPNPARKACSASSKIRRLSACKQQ
T1 sequence (Q7RTN6 1-431 partner): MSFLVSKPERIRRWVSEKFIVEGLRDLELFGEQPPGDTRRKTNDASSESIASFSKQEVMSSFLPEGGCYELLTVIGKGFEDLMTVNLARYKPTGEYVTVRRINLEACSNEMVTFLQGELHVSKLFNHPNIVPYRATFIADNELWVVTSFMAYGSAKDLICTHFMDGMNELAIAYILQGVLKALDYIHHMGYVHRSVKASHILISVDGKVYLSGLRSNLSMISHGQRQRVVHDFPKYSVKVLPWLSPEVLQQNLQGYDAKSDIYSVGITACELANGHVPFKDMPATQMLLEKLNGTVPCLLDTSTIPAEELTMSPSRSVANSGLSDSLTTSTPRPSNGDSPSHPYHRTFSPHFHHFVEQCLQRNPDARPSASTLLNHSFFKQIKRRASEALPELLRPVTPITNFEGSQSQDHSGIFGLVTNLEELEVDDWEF
T1 sequence (Q9Y376 1-341 partner): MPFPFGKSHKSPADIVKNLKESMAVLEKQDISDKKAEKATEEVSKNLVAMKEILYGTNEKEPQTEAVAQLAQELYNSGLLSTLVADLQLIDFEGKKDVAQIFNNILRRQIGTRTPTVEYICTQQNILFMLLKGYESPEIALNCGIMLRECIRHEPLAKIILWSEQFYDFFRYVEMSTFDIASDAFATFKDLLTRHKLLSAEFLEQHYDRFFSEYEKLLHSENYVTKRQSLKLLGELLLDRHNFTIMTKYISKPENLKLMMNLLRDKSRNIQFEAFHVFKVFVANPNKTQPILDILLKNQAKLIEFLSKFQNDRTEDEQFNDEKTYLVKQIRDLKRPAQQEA
Text: as §1
Figure 7 Effect of Oligosaccharide Number 5, See Figure 6, on Dephosphorylation of AMPK by PP2Cα and on Phosphorylation by CaMKKβ and LKB1 (A) Effect of oligosaccharide on dephosphorylation by PP2Cα. Rat liver AMPK was incubated with PP2Cα in the presence and absence of 1 mM oligosaccharide; at various times, levels of total α subunit and phosphorylation on Thr-172 were assessed by western blotting. (B) Quantification of results as in (A); means ± SEM of two experiments. (C) Effect of oligosaccharide on phosphorylation by CaMKKβ. […] At various times, levels of total α subunit and of phosphorylation on Thr-172 were assessed by western blotting. (D) Quantification of results as in (C); means ± SEM (n = 2). […] IC50 values were determined as in Figure 2A and curves generated from the best-fit parameters. […]

[3] = tested on: phosphorylation of Thr-172 by CaMKKβ; experiment: phosphorylation of Thr-172 of rat liver AMPK by CaMKKβ; format: biochemical; conditions: 1 mM oligosaccharide
Protocol: as §2

[4] = tested on: phosphorylation of Thr-172 by LKB1; experiment: phosphorylation of Thr-172 of rat liver AMPK by LKB1; format: biochemical; conditions: 1 mM oligosaccharide
Protocol: as §2

CO[C@H]1O[C@H](CO[C@H]2O[C@H](CO)[C@@H](O[C@H]3O[C@H](CO)[C@@H](O)[C@H](O)[C@H]3O)[C@H](O)[C@H]2O)[C@@H](O)[C@H](O)[C@H]1O [Oligosaccharide 5, Glcα1→4Glcα1→6Glcα-OMe]
effect on dephosphorylation by protein phosphatase-1 [1]: negative results
effect on dephosphorylation by PP2Cα [2]: no significant effect
inhibition of LKBtide phosphorylation (LKB1): no significant inhibition
inhibition of phosphorylation of Thr-172 by CaMKKβ [3]: marked inhibition
extent of inhibition of phosphorylation of the rat liver αβγ complex by LKB1 ([4]; Figure 7E): essentially complete
inhibition of phosphorylation of Thr-172 by LKB1 ([4]; time course): marked inhibition
